The values that follow come from ChEMBL document CHEMBL1201862, “PubChem BioAssay data set” (2004).

A short description of experiment [1]: intracellular Trypanosoma cruzi inhibitors in host cells – cell-based, plate reader, cherry-pick samples, set 3, dose response (AID 651818).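 Further: compounds incubated with infected cells for about four days.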 Type of experiment: functional.
A short description of experiment [2]: Fluorescence-based cell-based high throughput dose response assay for inhibitors of the interaction of nucleotide-binding oligomerization domain containing 2 (NOD2) and the receptor-interacting serine-threonine kinase 2 (RIPK2). Type of experiment: functional, Homo sapiens.
Experiment [3] concerns the target T1, Sentrin-specific protease 6 (Homo sapiens, UniProt Q9GZR1).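 Further: Luminescence-based dose-response confirmatory assay of SENP6 inhibition, following up an ultra-high-throughput screen.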
T1 sequence (Q9GZR1 whole entry): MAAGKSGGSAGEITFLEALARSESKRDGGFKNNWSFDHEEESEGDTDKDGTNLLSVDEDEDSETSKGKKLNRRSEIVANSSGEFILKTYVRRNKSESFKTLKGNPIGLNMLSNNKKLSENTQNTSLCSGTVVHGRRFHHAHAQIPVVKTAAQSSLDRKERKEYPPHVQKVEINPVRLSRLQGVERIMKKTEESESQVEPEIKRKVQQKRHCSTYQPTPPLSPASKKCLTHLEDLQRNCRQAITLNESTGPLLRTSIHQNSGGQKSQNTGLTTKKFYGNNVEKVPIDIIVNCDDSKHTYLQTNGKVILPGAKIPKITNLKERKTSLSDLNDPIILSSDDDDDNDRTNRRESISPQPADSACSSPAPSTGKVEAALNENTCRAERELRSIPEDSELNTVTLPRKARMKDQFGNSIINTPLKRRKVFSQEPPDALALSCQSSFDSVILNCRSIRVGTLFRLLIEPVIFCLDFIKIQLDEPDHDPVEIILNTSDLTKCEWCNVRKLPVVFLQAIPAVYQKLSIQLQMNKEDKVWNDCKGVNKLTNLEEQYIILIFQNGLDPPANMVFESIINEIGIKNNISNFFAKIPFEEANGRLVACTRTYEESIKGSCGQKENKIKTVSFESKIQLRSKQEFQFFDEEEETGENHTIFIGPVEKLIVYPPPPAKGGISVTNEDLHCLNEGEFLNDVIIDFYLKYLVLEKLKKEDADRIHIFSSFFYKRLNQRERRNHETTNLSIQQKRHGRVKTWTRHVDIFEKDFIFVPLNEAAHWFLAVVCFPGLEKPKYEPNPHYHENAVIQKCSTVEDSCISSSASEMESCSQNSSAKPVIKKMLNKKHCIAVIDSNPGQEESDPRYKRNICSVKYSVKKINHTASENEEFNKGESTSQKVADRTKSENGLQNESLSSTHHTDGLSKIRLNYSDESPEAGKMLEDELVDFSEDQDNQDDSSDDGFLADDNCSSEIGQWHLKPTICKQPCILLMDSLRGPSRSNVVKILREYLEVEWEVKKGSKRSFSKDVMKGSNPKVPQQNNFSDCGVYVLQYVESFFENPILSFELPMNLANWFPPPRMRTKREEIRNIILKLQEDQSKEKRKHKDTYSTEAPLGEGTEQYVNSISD
Type of experiment: functional.

Experiment [4] addresses T2, Sentrin-specific protease 7 (Homo sapiens, UniProt Q9BQF6).
T2 sequence (Q9BQF6 whole entry): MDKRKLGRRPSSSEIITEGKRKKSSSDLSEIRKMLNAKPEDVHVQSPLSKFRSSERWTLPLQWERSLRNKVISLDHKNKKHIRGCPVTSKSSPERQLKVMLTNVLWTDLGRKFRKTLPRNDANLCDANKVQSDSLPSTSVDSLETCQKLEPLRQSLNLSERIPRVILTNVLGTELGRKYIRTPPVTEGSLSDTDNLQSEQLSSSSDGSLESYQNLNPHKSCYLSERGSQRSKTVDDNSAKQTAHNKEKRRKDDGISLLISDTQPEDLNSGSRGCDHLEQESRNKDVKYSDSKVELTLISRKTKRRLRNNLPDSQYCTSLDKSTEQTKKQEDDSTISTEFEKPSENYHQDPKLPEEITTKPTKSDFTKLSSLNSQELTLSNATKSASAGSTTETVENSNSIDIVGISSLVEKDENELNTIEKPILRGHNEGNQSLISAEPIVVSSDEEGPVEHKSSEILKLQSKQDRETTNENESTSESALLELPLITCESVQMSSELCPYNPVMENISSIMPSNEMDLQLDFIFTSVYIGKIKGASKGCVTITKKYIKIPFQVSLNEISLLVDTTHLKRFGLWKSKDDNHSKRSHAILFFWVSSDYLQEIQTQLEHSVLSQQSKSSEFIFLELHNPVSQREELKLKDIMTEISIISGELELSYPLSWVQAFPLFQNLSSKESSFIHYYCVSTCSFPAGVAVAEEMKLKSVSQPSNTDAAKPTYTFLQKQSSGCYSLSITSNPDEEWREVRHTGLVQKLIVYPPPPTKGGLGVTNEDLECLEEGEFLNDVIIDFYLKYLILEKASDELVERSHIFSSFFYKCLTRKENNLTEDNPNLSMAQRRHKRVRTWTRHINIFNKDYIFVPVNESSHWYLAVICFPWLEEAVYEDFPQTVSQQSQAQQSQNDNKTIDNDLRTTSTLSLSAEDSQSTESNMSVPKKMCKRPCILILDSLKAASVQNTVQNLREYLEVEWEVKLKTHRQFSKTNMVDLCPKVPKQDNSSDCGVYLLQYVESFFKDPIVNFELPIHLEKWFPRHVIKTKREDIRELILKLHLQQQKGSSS
Type of experiment: functional.

For experiment [5], the target named is T3, Sentrin-specific protease 8 (Homo sapiens, UniProt Q96LD8).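 Further: luminescence read-out of SENP8 inhibition, dose-response confirmation following an ultra-high-throughput screen.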
T3 sequence (Q96LD8 whole entry): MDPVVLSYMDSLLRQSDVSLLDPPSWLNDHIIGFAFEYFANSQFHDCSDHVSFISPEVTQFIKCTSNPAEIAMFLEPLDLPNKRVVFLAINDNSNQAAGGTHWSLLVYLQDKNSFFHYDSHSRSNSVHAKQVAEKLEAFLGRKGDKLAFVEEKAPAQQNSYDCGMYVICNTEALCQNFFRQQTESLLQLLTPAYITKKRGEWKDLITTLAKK
Type of experiment: functional.

The target of another experiment is T4, Caspase-3 (Homo sapiens, UniProt P42574).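 Further: Dose-response selectivity test against caspase-3 for candidate inhibitors of sentrin-specific proteases (SENPs).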
T4 sequence (P42574 whole entry): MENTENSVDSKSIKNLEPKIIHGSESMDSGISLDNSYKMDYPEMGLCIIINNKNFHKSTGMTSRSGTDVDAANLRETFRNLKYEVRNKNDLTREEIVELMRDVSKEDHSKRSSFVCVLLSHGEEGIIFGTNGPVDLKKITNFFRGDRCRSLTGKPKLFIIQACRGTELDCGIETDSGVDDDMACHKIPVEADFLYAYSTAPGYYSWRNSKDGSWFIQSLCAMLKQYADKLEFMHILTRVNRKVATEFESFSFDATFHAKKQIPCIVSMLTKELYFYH
Type of experiment: functional.

Experiment [6] addresses T5, Microphthalmia-associated transcription factor (Homo sapiens, UniProt O75030).
T5 sequence (O75030 whole entry): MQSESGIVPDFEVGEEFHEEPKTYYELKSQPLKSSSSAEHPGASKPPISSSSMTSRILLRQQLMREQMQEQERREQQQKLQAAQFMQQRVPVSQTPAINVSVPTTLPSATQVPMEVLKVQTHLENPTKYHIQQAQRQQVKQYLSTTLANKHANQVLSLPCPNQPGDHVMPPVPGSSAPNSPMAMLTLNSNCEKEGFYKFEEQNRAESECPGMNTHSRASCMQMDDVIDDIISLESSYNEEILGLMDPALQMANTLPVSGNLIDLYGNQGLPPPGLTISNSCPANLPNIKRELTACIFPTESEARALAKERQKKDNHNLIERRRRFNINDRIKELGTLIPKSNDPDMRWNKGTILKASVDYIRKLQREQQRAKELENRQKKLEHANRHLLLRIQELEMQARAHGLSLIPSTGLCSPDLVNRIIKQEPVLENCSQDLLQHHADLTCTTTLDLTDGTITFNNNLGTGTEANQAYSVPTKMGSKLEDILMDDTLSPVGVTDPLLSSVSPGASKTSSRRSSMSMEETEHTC
The experiment can be described thus: reducers of TRPM1 reporter luminescence, concentration series – cell-based, SK-MEL-5, cherry-picked, set 3, MITF inhibitor project, dose response (AID 493073).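 Further: SK-MEL-5 melanoma cells with luciferase driven by the MITF target TRPM1 promoter.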 Type of experiment: functional.

Active and inactive are the calls of the source. For most assays here, no stated cut-off is given here; in the data, actives have a measured IC50 and inactives only a lower limit. Some results are limits rather than exact numbers.

As to `C[C@@H]1CN([C@H](C)CO)C(=O)Cc2cc(NC(=O)Cc3ccccc3)ccc2O[C@@H]1CN(C)Cc1ccc(-c2ccccc2)cc1`, in experiment [1], the AC50 was 6.35 µM (active).
For `CC(=O)OCC12CC(OC(=O)CC(C)C)C(C)=CC1OC1C(O)C(OC(C)=O)C2(C)C12CO2` (centres undefined), the IC50 in experiment [2] is 49.8 µM (inactive).
Regarding `Cc1[nH]n(-c2ccccc2)c(=O)c1N=Nc1cccc(C(=O)O)c1`, the IC50 was 21.5 µM (active) in experiment [3], 15.2 µM (active) in experiment [4], 35.5 µM (active) in experiment [5] and > 100 µM (inactive) at Caspase-3. In addition, the AC50 in experiment [6] is 8.07 µM (active).
With `Cc1n[nH]c(O)c1N=Nc1ccc(Br)c(Cl)c1`, the IC50 in experiment [3] was 3.79 µM (active); in experiment [4], 2.2 µM (active); in experiment [5] it was 2.43 µM (active); at Caspase-3, 2.41 µM (active).
As for `Cc1ccc(S(=O)(=O)N(C)C[C@H]2Oc3c(NC(=O)c4ccncc4)cccc3C(=O)N([C@H](C)CO)C[C@@H]2C)cc1`, in experiment [1], the AC50 was 6.3 µM (active).
Consider `C[C@@H]1CN([C@@H](C)CO)C(=O)c2cccc(NS(=O)(=O)c3ccc(Cl)cc3)c2O[C@@H]1CN(C)Cc1ccc(-c2ccccc2)cc1`, for which the concentration at half-maximal activity (AC50) in experiment [1] is 2.97 µM (active).
Still for that read-out and setting: to `C[C@@H]1CCCCO[C@H](CN(C)C(=O)Nc2ccccc2)[C@@H](C)CN([C@H](C)CO)C(=O)c2cc(NC(=O)Nc3ccc(C(F)(F)F)cc3)ccc2O1` belongs 4.2 µM (active).
